Experiment: Bioavailability of esters of methionine after spot dose to cows (Example 2)
Type: in vivo, cow
Description: The bioavailability of the esters was evaluated.
The samples were stored in a freezer.
The procedure of (b1) was repeated using 72 g of methionine ethyl ester hydrochloride, prepared as detailed above
• cyclohexyl methioninate: 122 g • methionine methyl ester hydrochloride: 73 g • sec butyl methioninate: 72 g

| [met] methionine concentration in blood plasma (bovine, in vivo, 0 h) | [met] methionine concentration in blood plasma (bovine, in vivo, 1 h) | [met] methionine concentration in blood plasma (bovine, in vivo, 2 h) | [met] methionine concentration in blood plasma (bovine, in vivo, 3 h) | [met] methionine concentration in blood plasma (bovine, in vivo, 5 h) | [met] methionine concentration in blood plasma (bovine, in vivo, 7 h) | [met] methionine concentration in blood plasma (bovine, in vivo, 28 h) | Bioavailability % (bovine, in vivo, po) [%] | methionine equivalent provided to the cow by rumen absorption (bovine, in vivo) | time after intake within which methionine is provided to the blood stream (bovine, in vivo) | [met] methionine concentration in blood plasma (0 hours after administration, spot dose equivalent to 50 g methionine, 2 cows) | [met] methionine concentration in blood plasma (1 hour after administration, spot dose equivalent to 50 g methionine, 2 cows) | [met] methionine concentration in blood plasma (2 hours after administration, spot dose equivalent to 50 g methionine, 2 cows) | [met] methionine concentration in blood plasma (3 hours after administration, spot dose equivalent to 50 g methionine, 2 cows) | [met] methionine concentration in blood plasma (5 hours after administration, spot dose equivalent to 50 g methionine, 2 cows) | [met] methionine concentration in blood plasma (7 hours after administration, spot dose equivalent to 50 g methionine, 2 cows) | [met] methionine concentration in blood plasma (28 hours after administration, spot dose equivalent to 50 g methionine, 2 cows) | Bioavailability % (AUC method, spot dose equivalent to 50 g methionine) [%] | SMILES |
| --- | --- | --- | --- | --- | --- | --- | --- | --- | --- | --- | --- | --- | --- | --- | --- | --- | --- | --- |
| 0.29 mg/100 g of blood plasma | 2.55 mg/100 g of blood plasma | 2.27 mg/100 g of blood plasma | 1.88 mg/100 g of blood plasma | 1.61 mg/100 g of blood plasma | 1.55 mg/100 g of blood plasma | 0.38 mg/100 g of blood plasma | 35 |  |  |  |  |  |  |  |  |  |  | CSCC[C@H](N)C(=O)OC1CCCCC1 [Cyclohexyl methioninate, cyclohexyl methioninate] |
| 0.33 mg/100 g of blood plasma | 0.38 mg/100 g of blood plasma | 0.37 mg/100 g of blood plasma | 0.37 mg/100 g of blood plasma | 0.44 mg/100 g of blood plasma | 0.45 mg/100 g of blood plasma | 0.28 mg/100 g of blood plasma | 3 |  |  |  |  |  |  |  |  |  |  | CCCCCCCCCCCCOC(=O)[C@@H](N)CCSC [Dodecyl methioninate, dodecyl methioninate] |
| 0.36 mg/100 g of blood plasma | 2.78 mg/100 g of blood plasma | 2.60 mg/100 g of blood plasma | 2.30 mg/100 g of blood plasma | 2.00 mg/100 g of blood plasma | 1.43 mg/100 g of blood plasma | 0.38 mg/100 g of blood plasma | 30 |  |  |  |  |  |  |  |  |  |  | CCOC(=O)[C@@H](N)CCSC.Cl [Methionine ethyl ester hydrochloride, methionine ethyl ester hydrochloride] |
| 0.41 mg/100 g of blood plasma | 1.96 mg/100 g of blood plasma | 1.43 mg/100 g of blood plasma | 1.27 mg/100 g of blood plasma | 1.18 mg/100 g of blood plasma | 1.22 mg/100 g of blood plasma | 0.43 mg/100 g of blood plasma | 25 |  |  |  |  |  |  |  |  |  |  | COC(=O)[C@@H](N)CCSC.Cl [Methionine methyl ester hydrochloride, methionine methyl ester hydrochloride] |
| 0.34 mg/100 g of blood plasma | 4.08 mg/100 g of blood plasma | 3.87 mg/100 g of blood plasma | 3.25 mg/100 g of blood plasma | 2.57 mg/100 g of blood plasma | 2.51 mg/100 g of blood plasma | 0.41 mg/100 g of blood plasma | 51 |  |  |  |  |  |  |  |  |  |  | COC(=O)[C@@H](N)CCSC [Methyl methioninate, methyl methioninate] |
| 0.37 mg/100 g of blood plasma | 4.84 mg/100 g of blood plasma | 4.87 mg/100 g of blood plasma | 4.98 mg/100 g of blood plasma | 4.39 mg/100 g of blood plasma | 4.19 mg/100 g of blood plasma | 0.76 mg/100 g of blood plasma | 80 | approximately 80% | less than one |  |  |  |  |  |  |  |  | CSCC[C@H](N)C(=O)OC(C)(C)C [Tertiary butyl methioninate, tertiary butyl methioninate] |
|  |  |  |  |  |  |  |  |  |  | 0.26 mg/100 g of blood plasma | 1.84 mg/100 g of blood plasma | 1.97 mg/100 g of blood plasma | 1.53 mg/100 g of blood plasma | 1.12 mg/100 g of blood plasma | 0.86 mg/100 g of blood plasma | 0.36 mg/100 g of blood plasma | 20 | CCOC(=O)[C@H](CCSC)NC(C)=O [ethyl N-acetyl methioninate] |
| 0.32 mg/100 g of blood plasma | 1.10 mg/100 g of blood plasma | 0.74 mg/100 g of blood plasma | 0.63 mg/100 g of blood plasma | 0.62 mg/100 g of blood plasma | 0.61 mg/100 g of blood plasma | 0.27 mg/100 g of blood plasma | 8 |  |  |  |  |  |  |  |  |  |  | CCCCOC(=O)[C@@H](N)CCSC [n-butyl methioninate] |
| 0.31 mg/100 g of blood plasma | 1.22 mg/100 g of blood plasma | 0.92 mg/100 g of blood plasma | 0.94 mg/100 g of blood plasma | 1.06 mg/100 g of blood plasma | 1.07 mg/100 g of blood plasma | 0.35 mg/100 g of blood plasma | 17 |  |  |  |  |  |  |  |  |  |  | CCCCCCOC(=O)[C@@H](N)CCSC [n-hexyl methioninate] |
| 0.37 mg/100 g of blood plasma | 0.37 mg/100 g of blood plasma | 0.37 mg/100 g of blood plasma | 0.34 mg/100 g of blood plasma | 0.37 mg/100 g of blood plasma | 0.31 mg/100 g of blood plasma | 0.38 mg/100 g of blood plasma | 1 |  |  |  |  |  |  |  |  |  |  | CCCCCCCCCCCCCCCCCCOC(=O)[C@@H](N)CCSC [n-octadecyl methioninate] |
| 0.32 mg/100 g of blood plasma | 2.29 mg/100 g of blood plasma | 1.70 mg/100 g of blood plasma | 1.55 mg/100 g of blood plasma | 1.27 mg/100 g of blood plasma | 1.14 mg/100 g of blood plasma | 0.32 mg/100 g of blood plasma | 22 |  |  |  |  |  |  |  |  |  |  | CCCOC(=O)[C@@H](N)CCSC [n-propyl methioninate] |
| 0.35 mg/100 g of blood plasma | 2.75 mg/100 g of blood plasma | 2.49 mg/100 g of blood plasma | 2.39 mg/100 g of blood plasma | 1.75 mg/100 g of blood plasma | 1.56 mg/100 g of blood plasma | 0.44 mg/100 g of blood plasma | 28 |  |  |  |  |  |  |  |  |  |  | CCC(C)OC(=O)[C@@H](N)CCSC (some centres unmarked) [sec butyl methioninate] |

Source: patent publication US6872749B2, “Method for supplying bioavailable methionine to a cow” (Adisseo Ireland Limited, priority 1998, dated 2005)
